Series [1] is described as follows: Tmax in Balb/c mouse at 10 mg/kg, po. In kind it is ADME, organism-based. As to conditions: in vivo.
The target of the next series is T1, PXR (Homo sapiens, UniProt O75469).
T1 sequence (O75469 whole entry): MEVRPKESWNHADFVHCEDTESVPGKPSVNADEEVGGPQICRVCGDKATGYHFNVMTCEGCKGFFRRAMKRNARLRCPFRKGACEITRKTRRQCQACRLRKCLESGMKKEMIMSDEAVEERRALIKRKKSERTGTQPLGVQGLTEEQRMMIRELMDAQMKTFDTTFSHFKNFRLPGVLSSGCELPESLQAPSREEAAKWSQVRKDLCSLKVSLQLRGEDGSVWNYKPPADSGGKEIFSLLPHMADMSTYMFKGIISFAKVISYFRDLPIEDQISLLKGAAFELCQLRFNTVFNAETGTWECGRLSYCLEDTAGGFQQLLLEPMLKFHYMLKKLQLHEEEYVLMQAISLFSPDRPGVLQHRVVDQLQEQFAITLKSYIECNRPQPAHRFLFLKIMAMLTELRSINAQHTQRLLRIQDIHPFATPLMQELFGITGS
The series can be described thus: Transactivation of PXR (unknown origin) expressed in human HepG2 cells assessed as maximum receptor activation response relative to control. In kind it is cell-based. The conditions noted are these: human HepG2 cells that express PXR, read-out: %max.

Series [2] in a line: Stability in human liver microsomes assessed as parent compound remaining after 10 mins. In kind it is ADME, Microsome. The conditions noted are these: liver microsomes, read-out: Stability. Background: Liver microsomes are a subcellular fraction often used to study metabolism.
In the next series the target is Cytochrome P450 2C9 (Homo sapiens, UniProt P11712). The series can be described thus: Inhibition of CYP2C9 (unknown origin). In kind it is ADME.
Another series has as its target Cytochrome P450 3A4 (Homo sapiens, UniProt P08684). Briefly: Inhibition of CYP3A4 (unknown origin). Type of series: ADME.
Series [3] has as its target T2, Nuclear receptor ROR-alpha (Homo sapiens, UniProt P35398).
T2 sequence (P35398 whole entry): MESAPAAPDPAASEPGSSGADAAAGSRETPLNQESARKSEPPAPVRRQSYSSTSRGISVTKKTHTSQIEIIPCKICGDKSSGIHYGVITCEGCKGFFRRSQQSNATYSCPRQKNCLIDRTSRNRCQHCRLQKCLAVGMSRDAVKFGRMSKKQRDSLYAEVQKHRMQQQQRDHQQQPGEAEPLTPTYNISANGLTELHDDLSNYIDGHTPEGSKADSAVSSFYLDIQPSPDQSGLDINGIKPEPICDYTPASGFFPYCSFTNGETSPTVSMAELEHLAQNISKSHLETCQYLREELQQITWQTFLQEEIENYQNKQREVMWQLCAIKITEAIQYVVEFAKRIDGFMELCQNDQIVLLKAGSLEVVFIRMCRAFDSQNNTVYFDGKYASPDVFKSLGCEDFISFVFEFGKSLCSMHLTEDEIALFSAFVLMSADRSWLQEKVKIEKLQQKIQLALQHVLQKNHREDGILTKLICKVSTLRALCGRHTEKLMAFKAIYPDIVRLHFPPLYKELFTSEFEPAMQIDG
The series can be described thus: Inverse agonist activity at human Gal4-fused RORalpha LBD (272 to 556 residues) expressed in human Jurkat cells measured after 18 hrs by steady-glo luciferase reporter gene assay. Type of series: cell-based. In general terms: Reporter assays use an easily measured gene product as a stand-in for the process of interest.

A further series concerns the target Cytochrome P450 2C19 (Homo sapiens, UniProt P33261). Briefly: Inhibition of CYP2C19 (unknown origin). In kind it is ADME.
A short description of series [4]: Half life in human liver microsomes. Type of series: ADME, Microsome.
For another series, the target named is T3, Cytochrome P450 2C8 (Homo sapiens, UniProt P10632).
T3 sequence (P10632 whole entry): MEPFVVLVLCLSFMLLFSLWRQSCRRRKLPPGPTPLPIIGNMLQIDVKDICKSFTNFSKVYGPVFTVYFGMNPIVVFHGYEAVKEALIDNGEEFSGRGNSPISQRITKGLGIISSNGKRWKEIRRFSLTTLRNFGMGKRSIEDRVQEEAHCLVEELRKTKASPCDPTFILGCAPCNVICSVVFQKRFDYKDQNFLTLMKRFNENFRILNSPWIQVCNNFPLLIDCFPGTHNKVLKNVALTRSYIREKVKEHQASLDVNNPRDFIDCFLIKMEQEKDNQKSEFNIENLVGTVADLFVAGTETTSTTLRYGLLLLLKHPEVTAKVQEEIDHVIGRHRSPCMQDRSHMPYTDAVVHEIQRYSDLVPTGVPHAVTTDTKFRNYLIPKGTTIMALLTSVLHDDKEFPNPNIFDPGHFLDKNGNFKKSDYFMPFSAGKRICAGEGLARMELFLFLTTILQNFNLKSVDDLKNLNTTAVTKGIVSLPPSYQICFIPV
The series can be described thus: Inhibition of CYP2C8 (unknown origin). In kind it is ADME.

Series [5] concerns the target T4, Oxysterols receptor LXR-beta (Homo sapiens, UniProt P55055).
T4 sequence (P55055 whole entry): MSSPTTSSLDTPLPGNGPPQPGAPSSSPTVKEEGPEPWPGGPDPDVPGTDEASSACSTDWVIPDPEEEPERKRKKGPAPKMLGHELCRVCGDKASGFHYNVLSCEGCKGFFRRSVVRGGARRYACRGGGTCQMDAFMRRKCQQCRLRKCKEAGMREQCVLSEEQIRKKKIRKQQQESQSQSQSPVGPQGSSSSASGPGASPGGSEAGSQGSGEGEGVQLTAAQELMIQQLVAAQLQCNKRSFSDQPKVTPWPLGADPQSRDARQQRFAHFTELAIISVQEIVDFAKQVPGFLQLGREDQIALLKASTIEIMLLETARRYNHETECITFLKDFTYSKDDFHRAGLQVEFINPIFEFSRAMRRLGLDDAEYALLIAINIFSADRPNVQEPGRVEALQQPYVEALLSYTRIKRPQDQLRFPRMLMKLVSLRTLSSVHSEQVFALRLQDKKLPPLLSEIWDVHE
The series can be described thus: Transactivation of human GAL4-fused LXRbeta expressed in African green monkey CV1 cells. Type of series: cell-based.

Another series deals with T5, Cytochrome P450 1A2 (Homo sapiens, UniProt P05177).
T5 sequence (P05177 whole entry): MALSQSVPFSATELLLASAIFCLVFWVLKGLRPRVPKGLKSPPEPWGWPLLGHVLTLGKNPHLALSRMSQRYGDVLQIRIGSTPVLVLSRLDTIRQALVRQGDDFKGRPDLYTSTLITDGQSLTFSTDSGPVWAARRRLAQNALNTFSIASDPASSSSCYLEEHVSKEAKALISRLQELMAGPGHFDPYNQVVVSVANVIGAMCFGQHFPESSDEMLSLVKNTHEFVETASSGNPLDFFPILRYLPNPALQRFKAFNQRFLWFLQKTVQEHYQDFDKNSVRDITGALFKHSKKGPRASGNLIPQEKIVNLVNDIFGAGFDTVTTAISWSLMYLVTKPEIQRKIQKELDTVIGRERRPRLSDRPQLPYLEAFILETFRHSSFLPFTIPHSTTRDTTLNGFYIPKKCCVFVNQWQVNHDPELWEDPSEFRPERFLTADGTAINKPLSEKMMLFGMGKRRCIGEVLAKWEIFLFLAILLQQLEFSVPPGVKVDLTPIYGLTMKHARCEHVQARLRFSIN
The series can be described thus: Inhibition of CYP1A2 (unknown origin). In kind it is ADME.

Series [6] can be described thus: Permeability in human Caco2 cells. Type of series: ADME, cell-based. As to conditions: Caco-2, read-out: permeability. For orientation: Caco-2 monolayers are a common model of the intestinal barrier.
The nature of series [7]: Half life in rat liver microsomes. Type of series: ADME, Microsome.

Cytochrome P450 3A4, sequence (P08684 whole entry): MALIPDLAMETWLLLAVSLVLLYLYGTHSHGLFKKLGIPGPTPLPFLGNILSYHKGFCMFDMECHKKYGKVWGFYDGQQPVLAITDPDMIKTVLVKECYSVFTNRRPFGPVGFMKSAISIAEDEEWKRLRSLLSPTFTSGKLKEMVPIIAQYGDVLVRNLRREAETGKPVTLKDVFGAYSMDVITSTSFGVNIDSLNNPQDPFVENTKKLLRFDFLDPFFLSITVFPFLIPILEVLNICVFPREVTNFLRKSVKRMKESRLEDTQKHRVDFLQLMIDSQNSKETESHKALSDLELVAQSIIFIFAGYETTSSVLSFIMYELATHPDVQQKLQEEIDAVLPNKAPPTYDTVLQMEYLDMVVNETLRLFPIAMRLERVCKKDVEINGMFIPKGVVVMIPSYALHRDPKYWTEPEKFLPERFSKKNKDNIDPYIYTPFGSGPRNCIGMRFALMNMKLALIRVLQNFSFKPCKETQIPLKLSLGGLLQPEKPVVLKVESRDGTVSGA
Cytochrome P450 2C9, sequence (P11712 whole entry): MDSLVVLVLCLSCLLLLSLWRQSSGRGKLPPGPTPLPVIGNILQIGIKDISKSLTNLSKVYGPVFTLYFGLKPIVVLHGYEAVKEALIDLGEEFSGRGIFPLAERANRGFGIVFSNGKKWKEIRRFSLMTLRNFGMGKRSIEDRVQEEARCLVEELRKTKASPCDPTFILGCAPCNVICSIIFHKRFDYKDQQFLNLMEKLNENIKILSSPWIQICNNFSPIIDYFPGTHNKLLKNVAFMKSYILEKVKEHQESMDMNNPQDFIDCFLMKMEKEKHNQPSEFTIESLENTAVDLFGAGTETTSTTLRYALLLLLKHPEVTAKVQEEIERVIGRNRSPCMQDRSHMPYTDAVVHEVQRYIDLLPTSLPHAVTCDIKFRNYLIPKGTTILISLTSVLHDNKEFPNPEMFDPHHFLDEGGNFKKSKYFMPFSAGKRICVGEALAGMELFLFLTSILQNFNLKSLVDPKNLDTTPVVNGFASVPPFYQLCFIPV
Cytochrome P450 2C19, sequence (P33261 whole entry): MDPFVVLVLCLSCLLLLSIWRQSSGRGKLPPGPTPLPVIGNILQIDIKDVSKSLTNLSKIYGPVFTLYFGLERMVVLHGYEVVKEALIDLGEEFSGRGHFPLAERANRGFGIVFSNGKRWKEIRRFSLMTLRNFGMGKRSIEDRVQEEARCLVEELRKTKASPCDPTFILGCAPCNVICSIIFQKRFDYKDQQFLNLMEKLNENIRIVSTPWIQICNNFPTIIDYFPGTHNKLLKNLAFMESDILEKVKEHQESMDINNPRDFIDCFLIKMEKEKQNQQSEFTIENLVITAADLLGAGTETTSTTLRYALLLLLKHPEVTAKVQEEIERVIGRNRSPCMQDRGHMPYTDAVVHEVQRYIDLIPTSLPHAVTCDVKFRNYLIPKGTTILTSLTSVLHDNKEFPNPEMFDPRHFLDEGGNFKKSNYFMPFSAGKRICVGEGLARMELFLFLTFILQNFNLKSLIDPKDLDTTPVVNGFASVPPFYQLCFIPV

Consider `CC[C@]1(C(=O)N2CC[C@](c3ccc(C(F)(C(F)(F)F)C(F)(F)F)cc3)(S(=O)(=O)c3ccc(F)cc3)C2)CC[C@H](C(=O)O)CC1`, for which the Tmax (as a rule, the time at which the peak concentration occurs) in series [1] stood at 0.5 h. In addition, the Emax at PXR worked out at 6%. In addition, in series [2], the remaining at 10 min worked out at 89%. For the same molecule, the IC50 at Cytochrome P450 2C9, on Cytochrome P450 3A4, at Cytochrome P450 2C19, at Cytochrome P450 2C8 and at Cytochrome P450 1A2 was more than 10 µM each time. Further, the figures for the EC50 in [3] and in [5] were more than 40 µM and more than 7.5 µM, respectively. The half-life in series [4] and in series [7] was more than 2 h throughout. Besides, in [6], the Papp was found to be 15.3 ×10⁻⁶ cm/s.
As to `O=C(O)C12CCC(C(=O)N3CC[C@](c4ccc(C(F)(C(F)(F)F)C(F)(F)F)cc4)(S(=O)(=O)c4ccc(F)cc4)C3)(CC1)CC2`, the Tmax in series [1] came to 1 h. For the same molecule, the Emax at PXR was determined as 6%. Besides, the remaining at 10 min in series [2] was determined as 100%. For the same molecule, the IC50 on Cytochrome P450 2C9, against Cytochrome P450 3A4, against Cytochrome P450 2C19, on Cytochrome P450 2C8 and against Cytochrome P450 1A2 was more than 10 µM in each case. The EC50 (as a rule, the concentration giving half of the maximal effect) in series [3] is more than 40 µM; in series [5] it was more than 7.5 µM. Besides, the half-life in [4] and in series [7] was more than 2 h each time. The Papp in series [6] was found to be 15 ×10⁻⁶ cm/s.

The record behind these values is ChEMBL document CHEMBL4387773, “Identification of potent, selective and orally bioavailable phenyl ((R)-3-phenylpyrrolidin-3-yl)sulfone analogues as RORγt inverse agonists” (Bioorg Med Chem Lett, 2019).
